Laboratory results: publication PMC10179589, “Membrane Permeability Is Required for the Vasodilatory Effect of Carbonic Anhydrase Inhibitors in Porcine Retinal Arteries” (International Journal of Molecular Sciences, 2023)
Where a name gives a salt, the structure may show the parent alone.

Experiments:
[1] = biological target: T1, hCA II (Homo sapiens, UniProt P00918); test: stopped-flow CA inhibition assay; type: biochemical
T1 construct: gene CA2; cytosolic isoform
Text: stopped-flow CA inhibition assay on hCA II

[2] = biological target: T2, hCA I (Homo sapiens, UniProt P00915); test: stopped-flow CA inhibition assay; type: biochemical
T2 construct: gene CA1; cytosolic isoform
T2 sequence (P00915 2-261): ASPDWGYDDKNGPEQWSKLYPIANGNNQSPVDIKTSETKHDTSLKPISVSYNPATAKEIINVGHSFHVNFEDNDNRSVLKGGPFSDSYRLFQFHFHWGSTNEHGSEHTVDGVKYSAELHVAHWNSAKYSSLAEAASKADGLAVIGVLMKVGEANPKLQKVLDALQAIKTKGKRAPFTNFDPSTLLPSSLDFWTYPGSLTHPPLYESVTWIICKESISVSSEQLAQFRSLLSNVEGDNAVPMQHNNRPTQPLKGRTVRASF
Text: stopped-flow CA inhibition assay on hCA I

Ki [1] [nM] | Ki [2] [nM] | SMILES
135 | 361 | N=C(N)NC(=N)Nc1ccc(S(N)(=O)=O)cc1 [compound 2, 4-(3-Carbamimidoylguanidino)benzenesulfonamide hydrochloride salt]
265 | 707 | N=C(N)NC(=N)Nc1cccc(S(N)(=O)=O)c1 [compound 4, 3-(3-Carbamimidoylguanidino)benzenesulfonamide hydrochloride salt]
